For data set [1], the system named is MDA-MB-231. In words: XTT cell viability assay, MDA-MB-231. Format: cell-based. The settings on record: Homo sapiens, XTT assay (48 h), standard deviation of 10%, read-out: EC50 (μM) Breast MDA-MB-231. The method, then: (§1) Fifty microliters of sodium 3′-[1-phenylaminocarbonyl)-3,4-tetrazolium]-bis(4-methoxy-6-nitro) benzene sulfonic acid hydrate (XTT) reagent was added to each well. The assay is based on the cleavage of the yellow tetrazolium salt XTT to form an orange formazan dye by metabolically active cells. The absorbance of the formazan product, reflecting cell viability, was measured at 490 nm. Each assay was performed in quadruplicate.
(§2) Compounds #1-#14 have been assayed as potential anti-proliferative agents against a panel of human breast head and neck, and kidney tumor cells and hematological malignancies, selected on the basis of their aggressiveness (e.g. incurable triple-negative breast cancer cells: MDA-MB-231; kidney ccRCC cells: RCC4, A498 and 786-O and 786R; head and neck cancer cells: CAL33, CAL33RR, CAL27, and CAL27RR; acute myeloid cell lines: OCI-AML2, OCI-AML3, MolM13, and MolM14; myelodysplastic cell line: SM1; and chronic myeloid cell line: CML). All these cell lines share as common denominator the expression of CXCR1 and CXCR2. The EC50 values have been measured by a XTT colorimetric assay, and compared to those of SB-225002, used as a reference; the results are listed in Table 1.
In general terms: Tetrazolium dyes change colour on reduction, which living cells bring about.

In data set [2] the test system is A498. The data set can be described thus: XTT cell viability assay, A498. In kind it is cell-based, human. The conditions noted are these: Homo sapiens, A498; XTT assay (48 h); standard deviation of 10%; read-out: EC50 (μM) Kidney A498. The method, then: as §1, §2
The subject of data set [3] is RCC4. The data set can be described thus: XTT cell viability assay, RCC4. In kind it is cell-based. The settings on record: Homo sapiens, XTT assay (48 h), standard deviation of 10%, read-out: EC50 (μM) Kidney RCC4. The method, then:
as §1, §2

Data set [4] deals with 786-O. The data set can be described thus: XTT cell viability assay, 786-O. In kind it is cell-based, human. The settings on record: Homo sapiens, 786-0; XTT assay (48 h); standard deviation of 10%; read-out: EC50 (μM) Kidney 786-O. How it is done:
(§3) A, B: Naive (786-O, A), and sunitinib-resistant (786-R, B) 786-O cells, were treated with compound #1 or sunitinib (1 to 10 μM) for 48 hr. Cell viability was measured by XTT assays;
(§4) D, E: 786-O (D), 786-R (E), were treated with 2.5 μM compound #1 or 2.5 μM sunitinib for 24 h to 96 h. The cells metabolism was measured by XTT assay;
as §1, §2

Data set [5] concerns 786R. In words: XTT cell viability assay, 786R (sunitinib-resistant). In kind it is cell-based, human. The settings on record: Homo sapiens, 48 h, XTT assay (48 h); sunitinib-resistant; standard deviation of 10%; read-out: EC50 (μM) Kidney 786R. How it is done: as §3, §4, §1, §2
The test system of data set [6] is OCI-AML2. The data set can be described thus: XTT cell viability assay, OCI-AML2. In kind it is cell-based, human. The conditions noted are these: Homo sapiens, OCI-AML2; XTT assay (48 h); standard deviation of 10%; read-out: EC50 (μM) AML OCI-AML2. The method, then:
as §1, §2

Data set [7] concerns OCI-AML3. In words: XTT cell viability assay, OCI-AML3. In kind it is cell-based, human. The conditions noted are these: Homo sapiens, OCI-AML-3; XTT assay (48 h); standard deviation of 10%. How it is done: as §1, §2
Data set [8] has as its system MolM13. In words: XTT cell viability assay, MolM13. In kind it is cell-based, human. The conditions noted are these: Homo sapiens, MOLM-13; XTT assay (48 h); standard deviation of 10%; read-out: EC50 (μM) AML MolM13. The method, then:
as §1, §2

Data set [9] has as its system MolM14. The data set can be described thus: XTT cell viability assay, MolM14. Format: cell-based, human. The settings on record: Homo sapiens, MOLM-14; XTT assay (48 h); standard deviation of 10%; read-out: EC50 (μM) AML MolM14. The method, then:
as §1, §2

Data set [10] deals with SKM1. In words: XTT cell viability assay, SKM1. Format: cell-based, human. The settings on record: Homo sapiens, SKM-1; XTT assay (48 h); standard deviation of 10%; read-out: EC50 (μM) MDS SKM1. The method, then:
as §1, §2

For data set [11], the system named is K562. In words: XTT cell viability assay, K562. In kind it is cell-based, human. The settings on record: Homo sapiens, K562; XTT assay (48 h); standard deviation of 10%; read-out: EC50 (μM) CML K562. How it is done: as §1, §2
Data set [12] concerns malignant (ccRCC and hematological) cells. The data set can be described thus: FACS analysis of cell death markers (AV, PI), malignant cells. In kind it is cell-based, human. The settings on record: 5 μM, 48 h. The method, then: (§5) FIG. 1: Observation by FACS analyses of early (Annexin AV) and late (Propidium Iodide, PI) apoptosis markers expressed by healthy and malignant cells after treatment with compounds #1 and #2 at 5 μM. CT: negative control.
(§6) Apoptosis analysis: After stimulation, cells were washed with ice-cold PBS and were stained with the annexin-V-fluos staining kit (Roche, Meylan, France) according to the manufacturer's procedure. Fluorescence was measured by using the FL2 (AV) and FL3 (propidium iodide, PI) channels of a fluorescence-activated cell sorter apparatus (Calibur cytometer).
(§7) To complete these XTT assays, malignant (ccRCC and hematological) and healthy (human fibroblasts FHN) cells have been grown with compounds #1 or #2, and after 48h the expression of cell death markers (AV and PI) has been quantified by FACS analyses (FIG. 1).
For orientation: A flow cytometer gives signals particle by particle.

The test system of data set [13] is healthy human fibroblasts (FHN). In words: FACS analysis of cell death markers (AV, PI), healthy fibroblasts. Format: cell-based. The settings on record: 5 μM, 48 h. The method, then: as §5, §6, §7
Data set [14] deals with macular degeneration model. The data set can be described thus: Macular degeneration model, clinical angiography. Format: in vivo, mice. The conditions noted are these: Day 14, intraperitoneal 400 μg 3 times a week. How it is done: FIG. 9: Evaluation of compounds #1 and #3 on macular degeneration. Clinical angiography at Day 14: Evaluation of the intensity of the lesion by a score from 0 to 3 (0: no leak; 1: light intensity; 2: moderate intensity; 3: immense marking) on mice treated with compounds #1 and #3. The intensities of the lesions were reported, each point corresponding to a lesion. Three lesions were performed on the eyes of each mouse; […]. • 4 groups of 12 mice were induced on the eyes by laser burnt as follows: • G1: vehicle; • G2 and G3: Compounds #1 and #3: intraperitoneal injection of 400 μg of product 3 times a week; and • G4: dexamethasone (2 mg/kg/day) orally. Clinical angiography at Day 14 on the 12 animals: evaluation of the intensity of the lesion by a score of 0 to 3 (0 no leak, 1=light intensity, 2=moderate intensity, 3=intense marking).

In data set [15] the test system is CAL33. The data set can be described thus: XTT cell viability assay, CAL33. Format: cell-based. The conditions noted are these: Homo sapiens, CAL-33; XTT assay (48 h); standard deviation of 10%; read-out: EC50 (μM) Head and Neck CAL33. How it is done: as §1, §2
Data set [16] concerns CAL33RR. In words: XTT cell viability assay, CAL33RR. In kind it is cell-based. The settings on record: Homo sapiens, light or radiation study; XTT assay (48 h); resistant to irradiation and cisplatin; standard deviation of 10%; read-out: EC50 (μM) Head and Neck CAL33RR. How it is done: as §1, §2
Data set [17] relates to CAL27. The data set can be described thus: XTT cell viability assay, CAL27. Format: cell-based, human. The settings on record: Homo sapiens, CAL-27, 48 h, XTT assay (48 h); standard deviation of 10%; read-out: EC50 (μM) Head and Neck CAL27. How it is done: (§8) A, B: Naive (Cal27, A), and cisplatine-resistant (Cal27R, B) Cal27 cells, were treated with compound #1 or cisplatine (1 to 10 μM) for 48 hr. Cell viability was measured by XTT assays;
(§9) C, D: Cal27 (C), cal27R (D), were treated with 2.5 μM compound #1, 2.5 μM cisplatin for 24 h to 96 h. The metabolism of cells was measured by XTT assay.
as §1, §2

Data set [18] has as its system CAL27RR. In words: XTT cell viability assay, CAL27RR (cisplatin-resistant). Format: cell-based, human. The conditions noted are these: Homo sapiens, light or radiation study; XTT assay (48 h); resistant to irradiation and cisplatin; standard deviation of 10%; read-out: EC50 (μM) Head and Neck CAL27RR. How it is done: as §8, §9, §1, §2
Data set [19] relates to CXCL7-dependent HuVEC migration. The data set can be described thus: Boyden chamber migration assay, CXCL7-dependent. In kind it is cell-based. The conditions noted are these: CXCL7 (50 ng/ml). The method, then: CXCL7 or VEGFA-stimulated chemotaxis assays were monitored using modified Boyden chambers containing polycarbonate membranes (8-μm pores, Transwell; Corning, Sigma). Cells were seeded on the upper side of the filters and chambers were placed on 24-well plates containing CXCL7 (50 ng/ml) or VEGFA (50 ng/ml). Cells were allowed to migrate for 24 hr at 37° C. in 5% CO2. Migratory cells on the lower membrane surface were fixed in 3% paraformaldehyde, stained with 0.1% crystal violet.

Consider `O=C(Nc1nc2ccc([N+](=O)[O-])cc2s1)Nc1ccccc1Cl` [Compound #2, 1-(2-chlorophenyl)-3-(6-nitrobenzo[d]thiazol-2-yl)urea], for which the EC50 in data set [1] is 8 µM; in data set [2], 5 µM; in data set [3], 7 µM; in data set [4], 5 µM; in data set [5] it was 8 µM; in data set [6], 10 µM. The EC50 turned out to be 10 µM in [7]; 5 µM in data set [8]; 10 µM in data set [9]; 10 µM in data set [10]; 7 µM in [11]. Moreover, the “early (AV) and late (PI) apoptosis markers on malignant cells” value in data set [12] is given as “cytotoxic effect on malignant cells”. The “apoptosis of healthy human fibroblasts (FHN)” value in data set [13] is “no increased apoptosis over the control experiment”.
For `CCOc1ccc2nc(NC(=O)Nc3ccccc3C)sc2c1` [Compound #3, 1-(6-ethoxybenzo[d]thiazol-2-yl)-3-(o-tolyl)urea], the EC50 was 12 µM in data set [1]; 15 µM in data set [2]; over 25 µM in data set [3]; 15 µM in data set [4]; 15 µM in data set [6]; 7 µM in data set [7]. Also, the EC50 was determined as 15 µM in [8], 10 µM in data set [9], 15 µM in data set [10] and 4 µM in data set [11]. Also, the “intensity of the lesion (score 0 to 3), clinical angiography” value in data set [14] is “significant effect”.
As to `O=C(Nc1cccc(Cl)c1)Nc1nc2ccc([N+](=O)[O-])cc2[nH]1` [Compound #14, 1-(3-chlorophenyl)-3-(6-nitro-1H-benzo[d]imidazol-2-yl)urea], the EC50 amounted to 5 µM in data set [2]; 3 µM in data set [3]; 4 µM in [4]; 4 µM in data set [5]; 15 µM in data set [15]; 25 µM in data set [16]. Also, the figures for the EC50 in [17] and in [18] were 15 µM and 10 µM, respectively.
Consider `Cc1c(F)cccc1NC(=O)Nc1ccc(Cl)c(S(=O)(=O)[C@H]2CCCNC2)c1O` [danirixin, reference compound], for which the “reduction of HuVEC CXCL7-dependent motility (comparison)” value in data set [19] is “less efficient than compound #1”.

In general, EC50 refers to the midpoint of the concentration-response curve.

The values are drawn from US20210380547A1, “UREA DERIVATIVES FOR TREATING AND/OR PREVENTING CANCER” (CENTRE NATIONAL DE LA RECHERCHE SCIENTIFIQUE, priority 2018, published 2021).
